# Patent US11655239B2 (SHANGHAI INSTITUTE OF MATERIAL MEDICA, CHINESE ACADEMY OF …, priority 2019, dated 2023)
# pIC50: −log10 of the molar value.
# Tests used:
# [1] = system: mouse model of BLM-induced lung injury; experiment: Serum ALP and LDH levels; type: in vivo; settings: mice
# Source text: Alkaline phosphatase (ALP) level and lactate dehydrogenase (LDH) level. An automatic blood indicator analyzer and related kits (alkaline phosphatase assay kit and lactate dehydrogenase assay kit) were used to measure related indicators.
# Serum lactate dehydrogenase (LDH) and alkaline phosphatase (ALP) are important markers of inflammatory response of lung injury.
# [2] = system: ERK1/2, Akt and p38; experiment: Phosphorylation level of downstream mediators of TGF-β (Western Blot); type: cell-based, human; settings: MRC-5, TGF-β1 treatment
# Method: 1) Preparation of cell protein samples: the cell culture liquid was discarded, wash was performed once with PBS, and samples were collected by adding 1×SDS-Loading. after the samples were collected, they were placed in a metal bath at 100° C., and the samples were boiled for 10 minutes, and then the samples were stored at 4° C. for waiting for subsequent test.
# 2) Gel preparation and sample loading: according to the molecular weight of the detected protein, different concentrations of separation gel were selected. after filling the 1× electrophoresis buffer, an equal volume of protein sample 4 μl and protein marker were added on the far left to right in sequence. […]
# 8) Secondary antibodies: the film with the primary antibodies was rewarmed and incubated for about half an hour, and then the primary antibodies were recovered and the film was washed quickly with TBST solution 3 times, 10 minutes each time. […] The dilution ratio of the secondary antibody dedicated for DDR2 was 1:5000; The dilution ratio for the rest of the secondary antibodies were 1:8000, ready for use. […]
# In addition, the phosphorylation level of the main downstream mediators of TGF-β was analyzed by Western Blot. […]
# [3] = biological target: EPH-A2 (Homo sapiens (Human), UniProt P29317); experiment: Enzyme selectivity test (ELISA), EPH-A2; type: biochemical
# Method: (§1) 1) Enzyme reaction substrate Poly(Glu, Tyr) 4:1 was diluted to 20 μg/mL with potassium-free PBS (10 mM sodium phosphate buffer, 150 mM NaCl, pH 7.2-7.4), and the microtiter plate was coated with 125 μL/well and placed at 37° C. for 12-16 hours of reaction. The liquid in the well was discard. The plate was washed three times with T-PBS (potassium-free PBS containing 0.1% Tween-20, 200 μL/well), 5 minutes each time. The ELISA plate was dried in an oven at 37° C. for 1 to 2 hours.
# (§2) 2) Reaction buffer (50 mM HEPES pH 7.4, 50 mM MgCl2, 0.5 mM MnCl2, 0.2 mM Na3VO4, 1 mM DTT) diluted ATP solution (49 μL) was added to each well, 1 μL of the compound to be tested was added to each well, and then 50 μL of DDR2 kinase domain recombinant protein diluted in the reaction buffer was added to start the reaction. Two control wells without ATP were set in each experiment. The plate placed on a shaker (100 rpm) at 37° C. for 1 hour of reaction. The liquid in the well was discarded and the plate was washed three times with T-PBS.
# (§3) 3) Antibody PY99 dilution solution (the antibody was diluted 1:500 with T-PBS containing BSA 5 mg/mL) was added at 100 μL/well, and shaken on a shaker at 37° C. for 0.5 hour of reaction. The liquid in the well was discarded and the plate was washed three times with T-PBS.
# (§4) 4) Horseradish peroxidase labeled goat anti-murine secondary antibody dilution solution (the antibody is diluted 1:2000 with T-PBS containing BSA 5 mg/ml) was added at 100 μL/well, and shaken on a shaker at 37° C. for 0.5 hour of reaction. The liquid in the well was discarded and the plate was washed three times with T-PBS.
# (§5) 5) 2 mg/ml of OPD color developing solution [diluted with 0.1 M citric acid-sodium citrate buffer (pH=5.4) containing 0.03% H2O2] was added at 100 μL/well and reacted for 1 to 10 minutes at 25° C. in the dark.
# (§6) 6) 2M H2SO4 was added at 50 μL/well to stop the reaction, and a tunable wavelength microplate reader VERSAmax was used for reading at a wavelength of 490 nm.
# (§7) The IC50 value was obtained by four-parameter regression using the software that came with the microplate reader. […]
# [4] = biological target: VEGFR-1 (Homo sapiens (Human), UniProt P17948); experiment: Enzyme selectivity test (ELISA), VEGFR-1; type: biochemical
# Method: as §1, §2, §3, §4, §5, §6, §7
# [5] = biological target: RET (Homo sapiens (Human), UniProt P07949); experiment: Enzyme selectivity test (ELISA), RET; type: biochemical
# Method: as §1, §2, §3, §4, §5, §6, §7
# Chain of RET (P07949 29-1114, species assumed): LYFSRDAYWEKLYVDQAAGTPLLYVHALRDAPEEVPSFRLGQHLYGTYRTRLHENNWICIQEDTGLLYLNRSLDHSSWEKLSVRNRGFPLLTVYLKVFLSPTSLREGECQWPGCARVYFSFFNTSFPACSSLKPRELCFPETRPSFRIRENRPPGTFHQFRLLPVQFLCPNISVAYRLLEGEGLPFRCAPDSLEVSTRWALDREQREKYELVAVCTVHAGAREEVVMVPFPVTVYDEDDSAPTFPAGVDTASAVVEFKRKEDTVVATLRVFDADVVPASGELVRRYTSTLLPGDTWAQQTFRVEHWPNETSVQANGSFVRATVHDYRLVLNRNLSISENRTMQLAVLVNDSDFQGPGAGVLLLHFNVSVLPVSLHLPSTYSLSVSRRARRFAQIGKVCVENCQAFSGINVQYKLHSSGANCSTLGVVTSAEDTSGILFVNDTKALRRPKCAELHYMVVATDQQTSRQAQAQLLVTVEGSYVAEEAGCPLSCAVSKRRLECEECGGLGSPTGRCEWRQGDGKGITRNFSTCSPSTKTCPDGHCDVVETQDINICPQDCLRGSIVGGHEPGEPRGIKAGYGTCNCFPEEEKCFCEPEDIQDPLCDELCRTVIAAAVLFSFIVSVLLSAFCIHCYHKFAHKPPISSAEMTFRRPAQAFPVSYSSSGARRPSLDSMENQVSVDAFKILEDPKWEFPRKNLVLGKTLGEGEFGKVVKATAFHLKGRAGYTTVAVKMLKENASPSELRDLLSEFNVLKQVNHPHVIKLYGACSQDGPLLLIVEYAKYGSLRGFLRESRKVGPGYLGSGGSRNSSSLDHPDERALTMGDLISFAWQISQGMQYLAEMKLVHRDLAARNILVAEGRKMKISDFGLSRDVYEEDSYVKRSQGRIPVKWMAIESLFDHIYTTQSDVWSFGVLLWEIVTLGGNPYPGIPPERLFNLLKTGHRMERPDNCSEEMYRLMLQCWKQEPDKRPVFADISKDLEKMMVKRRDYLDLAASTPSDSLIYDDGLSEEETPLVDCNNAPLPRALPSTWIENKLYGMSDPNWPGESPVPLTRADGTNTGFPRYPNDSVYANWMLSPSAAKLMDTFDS
# Chain of VEGFR-1 (P17948 27-1338, species assumed): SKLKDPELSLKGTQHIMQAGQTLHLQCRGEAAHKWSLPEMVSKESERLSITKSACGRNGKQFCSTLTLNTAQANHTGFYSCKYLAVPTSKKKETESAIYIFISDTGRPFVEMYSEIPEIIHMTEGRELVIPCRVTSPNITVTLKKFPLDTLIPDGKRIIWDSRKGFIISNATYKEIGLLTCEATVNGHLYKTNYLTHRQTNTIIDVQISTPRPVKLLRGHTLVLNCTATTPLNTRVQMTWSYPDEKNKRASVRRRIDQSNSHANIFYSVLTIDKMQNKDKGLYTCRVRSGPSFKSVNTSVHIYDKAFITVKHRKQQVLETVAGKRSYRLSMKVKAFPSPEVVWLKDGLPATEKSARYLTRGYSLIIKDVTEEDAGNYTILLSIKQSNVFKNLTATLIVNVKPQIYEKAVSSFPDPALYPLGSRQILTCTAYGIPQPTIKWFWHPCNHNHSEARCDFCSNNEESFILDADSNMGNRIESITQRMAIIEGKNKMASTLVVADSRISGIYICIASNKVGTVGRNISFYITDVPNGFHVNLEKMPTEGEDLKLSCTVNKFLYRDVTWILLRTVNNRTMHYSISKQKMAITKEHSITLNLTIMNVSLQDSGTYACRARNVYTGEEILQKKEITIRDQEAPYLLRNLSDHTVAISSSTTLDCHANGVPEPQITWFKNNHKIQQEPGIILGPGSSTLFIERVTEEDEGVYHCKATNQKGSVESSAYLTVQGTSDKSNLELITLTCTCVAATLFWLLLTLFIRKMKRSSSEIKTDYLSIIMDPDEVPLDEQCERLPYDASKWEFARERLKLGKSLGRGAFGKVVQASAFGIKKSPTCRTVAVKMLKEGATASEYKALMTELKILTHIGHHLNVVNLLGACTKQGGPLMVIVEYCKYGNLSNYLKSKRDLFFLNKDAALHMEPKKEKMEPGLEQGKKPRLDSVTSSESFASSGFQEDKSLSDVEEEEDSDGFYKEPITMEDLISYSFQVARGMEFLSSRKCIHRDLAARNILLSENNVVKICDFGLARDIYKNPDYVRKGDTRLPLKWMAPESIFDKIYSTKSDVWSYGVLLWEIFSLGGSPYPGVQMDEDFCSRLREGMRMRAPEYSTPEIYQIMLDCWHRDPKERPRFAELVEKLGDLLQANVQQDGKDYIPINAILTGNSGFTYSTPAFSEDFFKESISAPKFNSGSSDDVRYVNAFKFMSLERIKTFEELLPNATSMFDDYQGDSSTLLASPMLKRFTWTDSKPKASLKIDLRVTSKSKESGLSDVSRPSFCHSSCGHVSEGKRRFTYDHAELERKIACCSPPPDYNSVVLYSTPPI
# Chain of EPH-A2 (P29317 24-976, species assumed): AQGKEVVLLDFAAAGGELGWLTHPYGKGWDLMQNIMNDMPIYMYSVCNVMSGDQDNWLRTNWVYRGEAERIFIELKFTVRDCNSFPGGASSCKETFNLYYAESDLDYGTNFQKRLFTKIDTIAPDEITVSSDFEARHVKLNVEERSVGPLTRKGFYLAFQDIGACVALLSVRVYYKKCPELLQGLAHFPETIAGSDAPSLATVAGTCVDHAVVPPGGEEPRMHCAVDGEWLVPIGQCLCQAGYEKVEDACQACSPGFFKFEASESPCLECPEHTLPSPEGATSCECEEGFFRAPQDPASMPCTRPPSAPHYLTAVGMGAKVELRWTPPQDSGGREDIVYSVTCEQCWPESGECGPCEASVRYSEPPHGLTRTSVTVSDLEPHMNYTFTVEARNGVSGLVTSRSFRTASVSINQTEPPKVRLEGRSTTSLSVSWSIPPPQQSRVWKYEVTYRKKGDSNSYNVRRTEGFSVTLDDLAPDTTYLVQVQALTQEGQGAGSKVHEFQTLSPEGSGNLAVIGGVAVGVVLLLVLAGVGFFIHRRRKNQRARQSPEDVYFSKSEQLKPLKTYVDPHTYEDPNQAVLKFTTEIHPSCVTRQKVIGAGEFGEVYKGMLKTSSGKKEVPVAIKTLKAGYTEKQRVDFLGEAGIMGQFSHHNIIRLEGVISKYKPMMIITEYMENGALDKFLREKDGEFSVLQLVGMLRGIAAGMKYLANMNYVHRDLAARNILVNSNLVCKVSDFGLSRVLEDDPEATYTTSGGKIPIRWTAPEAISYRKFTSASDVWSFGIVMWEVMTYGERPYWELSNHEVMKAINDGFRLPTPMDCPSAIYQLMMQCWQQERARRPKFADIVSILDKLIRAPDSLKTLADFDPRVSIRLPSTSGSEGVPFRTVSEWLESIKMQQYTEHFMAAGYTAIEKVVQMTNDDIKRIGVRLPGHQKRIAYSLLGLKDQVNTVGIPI
structure (smiles),measurement,setting,value
"O=C(Nc1cccc(C(F)(F)F)c1)c1ccc(C2CC2)c(-c2ccc3nc(Nc4cnn(C5CC5)c4)ncc3c2)c1 [Compound S15, 4-cyclopropyl-3-(2-((1-cyclopropyl-1H-pyrazol-4-yl)amino)quinazolin-6-yl)-N-(3-(trifluoromethyl)phenyl)benzamide]",ALP serum level,[1],inhibit the level of ALP more effectively than nintedanib
same,LDH serum level,[1]; 90 mg/kg high dose group,effectively inhibit serum LDH level
same,"phosphorylation level of downstream ERK1/2, Akt and p38",[2],"significantly inhibit the phosphorylation level of downstream ERK1/2, Akt and p38"
same,pIC50,[3],< 8.00
same,pIC50,[4],< 6.00
same,pIC50,[5],< 6.00
